We go through 23 molecules from ChEMBL document CHEMBL3877282, “Synthesis and structure-activity studies of side chain analogues of the anti-tubercular agent, Q203” (Eur J Med Chem, 2017).

≈ marks a conversion by molar mass, not a printed value. A value given as a limit tells only on which side of the number the result lay.

Data set [1] concerns Mycobacterium tuberculosis. Description: Antimycobacterial activity against GFP-fused Mycobacterium tuberculosis H37Rv in liquid broth culture medium. The data set is classed as functional.
Data set [2] can be described thus: Volume of distribution at steady state in mouse at 2 mg/kg, iv. The conditions noted are these: in vivo, read-out: Vdss. The data set is classed as ADME, organism-based.
Data set [3] is described as follows: Cmax in mouse at 10 mg/kg, po. In kind it is ADME, organism-based. Details: dose 10 mg/kg, route oral. The settings on record: in vivo.
Data set [4] has as its system Mycobacterium tuberculosis. As to the kind of experiment: Antimycobacterial activity against GFP-fused Mycobacterium tuberculosis H37Rv infected in macrophages. In kind it is functional.
Data set [5] is described as follows: Tmax in mouse at 10 mg/kg, po. The conditions noted are these: in vivo. The data set is classed as ADME, organism-based.
Data set [6] can be described thus: Clearance in mouse at 2 mg/kg, iv. The data set is classed as ADME, organism-based. The settings on record: in vivo.
A short description of data set [7]: Half life in mouse at 10 mg/kg, po. The settings on record: in vivo. In kind it is ADME, organism-based.
The nature of data set [8]: AUC (0 to infinity) in mouse at 10 mg/kg, po. In kind it is ADME, organism-based. Details: dose 10 mg/kg, route oral, time infinity. The settings on record: in vivo.
The nature of data set [9]: Half life in mouse at 2 mg/kg, iv. The data set is classed as ADME, organism-based. The conditions noted are these: in vivo.
Data set [10] is described as follows: Oral bioavailability in mouse at 10 mg/kg. In kind it is ADME, organism-based. The settings on record: in vivo.

As for `CCc1nc2cc(Cl)ccn2c1C(=O)NCc1ccc(N2CCC(Cc3ccccc3)CC2)cc1`, the MIC80 in data set [1] was 0.022 µM (≈ 0.0107 µg/mL).

`CCc1nc2ccc(Cl)cn2c1C(=O)NCc1ccc(OCc2ccc(OC(F)(F)F)cc2)cc1` yielded an MIC80 in data set [1] of 0.015 µM (≈ 0.00756 µg/mL).

Usually Cmax stands for the highest concentration seen after dosing. For orientation: Tmax means the time at which the peak concentration occurs. As a reminder, the clearance is the volume of plasma or blood freed of the substance per unit of time. One may read the half-life as the time needed for the level to fall by half in the phase considered. Read a high half-life as slow decline. What is called AUC(0-inf) is the area under the concentration-time curve extrapolated to infinity. What is called bioavailability is dose-corrected exposure relative to a reference, in per cent. Read a high bioavailability as good availability. With `CCc1nc2ccc(Cl)cn2c1C(=O)NCc1ccc(N2CCC(Oc3ccc(Cl)cc3)CC2)cc1`, the Vd in data set [2] was determined as 1.34 L/kg. The molecule further came in with a Cmax in [3] of 3540 ng/mL. The results for the MIC80 in data set [4] and in data set [1] were under 0.001 µM and 0.003 µM (≈ 0.00157 µg/mL), respectively. In data set [5], the Tmax was found to be 2 h. The molecule further had a clearance in data set [6] of 2.83 mL/min/kg. Further, the results for the half-life in data set [7] and in [9] were 18.9 h and 14.1 h, respectively. In [8], this molecule showed a total exposure AUC(0-inf) of 30300 ng·h/mL. This molecule also had a bioavailability in data set [10] of 51.4%.

On to `CCc1nc2ccc(Cl)cn2c1C(=O)NCc1ccc(N2CCC(Oc3ccc(Cl)cc3)C2)cc1` (single isomer, unassigned; 41), for which, in data set [1], the MIC80 stood at 0.014 µM (≈ 0.00713 µg/mL).

`CCc1nc2ccc(Cl)cn2c1C(=O)NCc1ccc(N2CCC(Oc3ccc(Cl)cc3)C2)cc1` (single isomer, unassigned; 40) returned an MIC80 in data set [1] of 0.006 µM (≈ 0.00306 µg/mL).

For the molecule `CCc1nc2cc(Cl)ccn2c1C(=O)NCc1ccc(Nc2ccc(OC(F)(F)F)cc2)cc1`, the MIC80 in data set [1] turned out to be 0.839 µM (≈ 0.41 µg/mL).

On to `CCc1nc2cc(Cl)ccn2c1C(=O)NCc1ccc(OCc2ccc(OC(F)(F)F)cc2)cc1`, for which the Vd in data set [2] came to 4.68 L/kg. The molecule further displayed a peak concentration (Cmax) in data set [3] of 1640 ng/mL. Besides, the MIC80 in data set [4] is under 0.001 µM; in data set [1] it was 0.015 µM (≈ 0.00756 µg/mL). For the same molecule, the Tmax in data set [5] is 0.5 h. The same molecule came in with a clearance in [6] of 5.77 mL/min/kg. Moreover, the half-life in data set [7] is 11.9 h; in [9] it was 13.9 h. In data set [8], this molecule returned an area under the curve AUC(0-inf) of 11500 ng·h/mL. The molecule also came in with a bioavailability in data set [10] of 53.4%.

Turning to `CCc1nc2ccc(Cl)cn2c1C(=O)NCc1ccc(N2CCN(Cc3ccc(OC(F)(F)F)cc3)CC2)cc1`, the MIC80 in [4] was 0.082 µM (≈ 0.0469 µg/mL); in data set [1] it was 0.015 µM (≈ 0.00858 µg/mL).

On to `NNC(=O)c1ccncc1` [ISONIAZID], for which the MIC80 in data set [4] came to 0.2 µM (≈ 0.0274 µg/mL); in data set [1], 0.49 µM (≈ 0.0672 µg/mL).

`CCc1nc2ccc(Cl)cn2c1C(=O)NCc1ccc(N2CCC(Oc3ccc(C(F)(F)F)cc3)CC2)cc1`: in data set [2], the Vd amounted to 2.39 L/kg. Further, the highest concentration (Cmax) in data set [3] turned out to be 4100 ng/mL. Further, the MIC80 amounted to 0.009 µM (≈ 0.00501 µg/mL) in data set [4] and 0.026 µM (≈ 0.0145 µg/mL) in [1]. Also, the Tmax in data set [5] amounted to 2 h. The molecule further returned a clearance in data set [6] of 2.23 mL/min/kg. The half-life is 20 h in data set [7] and 19.6 h in data set [9]. For the same molecule, in data set [8], the AUC(0-inf) came out at 48900 ng·h/mL. The bioavailability in data set [10] was determined as 65.6%.

`CCc1nc2cc(Cl)ccn2c1C(=O)NCc1ccc(N(C)c2ccc(OC(F)(F)F)cc2)cc1`: the MIC80 came to 0.023 µM (≈ 0.0116 µg/mL) in data set [4] and 0.04 µM (≈ 0.0201 µg/mL) in data set [1].

In data set [1], `CCc1nc2ccccn2c1C(=O)NCc1ccc(OCc2ccc(OC(F)(F)F)cc2)cc1` showed an MIC80 of 0.027 µM (≈ 0.0127 µg/mL).

In the case of `CCc1nc2ccc(Cl)cn2c1C(=O)NCc1ccc(N2CCC(Oc3ccc(F)cc3)CC2)cc1`, the MIC80 in data set [1] worked out at 0.01 µM (≈ 0.00507 µg/mL).

Consider `CCc1nc2ccc(Cl)cn2c1C(=O)NCc1ccc(N2CCN(C(=O)Cc3ccc(F)cc3)CC2)cc1`, for which the MIC80 in data set [1] worked out at 0.373 µM (≈ 0.199 µg/mL).

As to `CCc1nc2ccc(F)cn2c1C(=O)NCc1ccc(OCc2ccc(OC(F)(F)F)cc2)cc1`, the Vd in data set [2] stood at 3.85 L/kg. In data set [3], this molecule gave a peak concentration (Cmax) of 2620 ng/mL. In addition, the MIC80 in data set [4] was 0.028 µM (≈ 0.0136 µg/mL); in data set [1], 0.084 µM (≈ 0.0409 µg/mL). Moreover, the time of peak concentration (Tmax) in [5] came to 1 h. Further, the clearance in data set [6] is 4.76 mL/min/kg. Also, the half-life is 11.4 h in data set [7] and 11 h in [9]. In [8], this molecule gave an AUC(0-inf) of 28200 ng·h/mL. In [10], this molecule displayed a bioavailability of 80.5%.

Consider `CCc1nc2cc(Cl)ccn2c1C(=O)NCc1ccc(Oc2ccc(OC(F)(F)F)cc2)cc1`, for which the MIC80 was 0.027 µM (≈ 0.0132 µg/mL) in data set [4] and 0.064 µM (≈ 0.0314 µg/mL) in data set [1].

For the molecule `CCc1nc2cc(Cl)ccn2c1C(=O)NCc1ccc(N2CCC(Oc3ccc(OC(F)(F)F)cc3)CC2)cc1`, in data set [1], the MIC80 is 0.021 µM (≈ 0.012 µg/mL).

`CCc1nc2cc(Cl)ccn2c1C(=O)NCc1ccc(NCc2ccc(OC(F)(F)F)cc2)cc1` had an MIC80 in [1] of 0.25 µM (≈ 0.126 µg/mL).

Consider `CCc1nc2ccc(Cl)cn2c1C(=O)NCc1ccc(N2CCN(C(=O)c3ccc(F)cc3)CC2)cc1`, for which, in data set [1], the MIC80 was determined as 0.534 µM (≈ 0.278 µg/mL).

`CCc1nc2ccc(Cl)cn2c1C(=O)NCc1ccc(N2CCC(COc3ccc(OC(F)(F)F)cc3)CC2)cc1`: the MIC80 in [1] came to 0.037 µM (≈ 0.0217 µg/mL).

In the case of `CCc1nc2ccc(Br)cn2c1C(=O)NCc1ccc(OCc2ccc(OC(F)(F)F)cc2)cc1`, the MIC80 in [1] was 0.432 µM (≈ 0.237 µg/mL).

Consider `CCc1nc2cc(Cl)ccn2c1C(=O)NCc1ccc(OCc2ccc(F)cc2)cc1`, for which, in [1], the MIC80 was determined as 0.02 µM (≈ 0.00876 µg/mL).

`CCc1nc2ccc(Cl)cn2c1C(=O)NCc1ccc(N2CCC(Oc3ccc(OC(F)(F)F)cc3)CC2)cc1` gave an MIC80 in [1] of 0.007 µM (≈ 0.00401 µg/mL).
